pIC50: −log10 of the molar value. “Also recorded” adds a separate entry of the source. Bridge positions count the residues as written; N and C are the ends. Peptide text beside a SMILES is read from it.
How the values were obtained:
[1] = biological target: T1, brain receptors (calcitonin receptors, crude rat brain membranes) (Rattus norvegicus, UniProt P32214); conditions: tubes pretreated with peptide, 30 min at 4° C.
T1 sequence (P32214 25-516): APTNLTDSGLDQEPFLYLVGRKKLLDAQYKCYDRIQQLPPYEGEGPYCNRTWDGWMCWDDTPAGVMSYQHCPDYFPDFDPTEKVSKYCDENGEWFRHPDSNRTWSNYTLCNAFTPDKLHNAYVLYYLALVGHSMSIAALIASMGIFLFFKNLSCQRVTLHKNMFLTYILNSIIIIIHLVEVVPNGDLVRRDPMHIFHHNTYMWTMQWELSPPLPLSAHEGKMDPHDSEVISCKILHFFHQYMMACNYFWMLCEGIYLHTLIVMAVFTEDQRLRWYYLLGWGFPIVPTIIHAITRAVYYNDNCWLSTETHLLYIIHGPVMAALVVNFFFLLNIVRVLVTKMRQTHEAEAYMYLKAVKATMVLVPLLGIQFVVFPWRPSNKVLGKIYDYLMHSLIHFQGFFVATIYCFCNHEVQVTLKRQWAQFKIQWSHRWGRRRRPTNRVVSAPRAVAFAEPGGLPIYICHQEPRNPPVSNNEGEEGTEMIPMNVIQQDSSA
Procedure: Crude rats brain membranes were prepared as described by Nakamuta et al., supra, using 250-300 gm male Sprague-Dawley rats (Charles River Breeding Laboratories). Membranes were either used immediately or stored at -80° C. for no more than three days. Crude rat kidney membranes used for binding studies and adenylate cyclase assays were prepared as described by Schwartz, K. E., R. C. […] The dissected kidney cortices were first homogenized briefly with a Polytron™ (Brinkman Instruments) at low speed ("5") before complete homogenization with a loose-fitting Wheaton Dounce homogenizer (American Scientific Products, MacGaw Park, IL, pestle "B"). […] All preparations of kidney membranes were carried out at 4° C. and the membranes were used immediately for binding studies or adenylate cyclase assays.
The mixture was aspirated after a 1 hr incubation and these tubes were reused for all experiments, one set for brain membrane binding experiments and one set for kidney membrane binding experiments. […] Incubations were continued for 30 min at 4° C. (brain membranes) or 40 min at 21° C. (kidney membranes), and then stopped by centrifuging the tubes at 13,000 rpm for 5 min on a Beckman Microfuge II™ (Beckman Instruments). […] Radioactivity in each tip was quantitated using a Beckman Gamma 5500™ counter (Beckman Instruments).

[2] = Surface monolayer studies at the air-water interface; format: physicochemical; conditions: for Collapse pressure of the monolayer: air-water interface, 0.01M Tris.HCl pH 7.4, 0.1M NaCl
Procedure: For surface monolayer studies, a subphase of 0.01M Tris.HCl, pH 7.4 with 0.1M NaCl was prepared with glass-distilled water. Surfactant contaminants were removed by bubbling air through the solution for 10 min, then aspirating the surface of the buffer. Insoluble monolayers were spread from a 2.8×10^-4 M solution of MCT-I in 0.1 mM HCl. The surface pressure π(dyn/cm) of the MCT-I monomolecular layer was measured as a function of area, A (cm^2), using a Lauda™ film balance (Brinkman Instruments, Norwalk, CT). At the air-water interface, MCT-I and SCT-I form insoluble monolayers when spread from concentrated solutions in 0.01M HCl. The force-area (π-A) curves between 5 and 12 dyn/cm are described by the equation π[A-A.infin. (1-κπ)]=nRT where κ is a constant reflecting the compressibility of the monolayer and A.infin. is the limiting molecular area extrapolated to zero surface pressure. The parameters calculated for the two peptides were very similar, κ=0.016 cm/dyn for MCT-I and 0.02 cm/dyn for SCT-I, while A.infin. =362 Å^2 for MCT-I and A.infin. =322 Å^2 for SCT I. However, the collapse pressure of 24 dyn/cm found for the monolayer of MCT-I was much higher than the value of 14 dyn/cm observed for SCT-I.
Surface monolayer studies were conducted as in Example 4. MCT-II forms stable monolayers at the air-water interface when spread from concentrated solutions in 0.01M HCl. The force-area curve (π-A) between 0 dyn/cm and 21 dyn/cm can be described by the equation π(A-A.infin. (1-κπ))=nRT where A.infin. is the limiting molecular area extrapolated to zero surface pressure and κ is a constant reflecting the compressibility of the monolayer. The parameters calculated using the entire π-A curve indicate that MCT-II forms a compact, relatively rigid structure at the air-water interface. A.infin. was 362±10 Å^2 compared with 434±7 Å^2 for MCT-I and 559±18 Å^2 for SCT-I. Monolayers of SCT-I, MCT-I, and MCT-II were successively less compressible with κ having values of 0.03 cm/dyn for SCT-I, 0.02 cm/dyn for MCT-I, and 0.01 cm/dyn for MCT-II. Collapse of the monolayer occurred at 22 dyn/cm which was slightly lower than the 24 dyn/cm observed for MCT-I and higher than for the SCT-I monolayer which collapses at 12 dyn/cm.

[3] = tested on: rat kidney adenylate cyclase; experiment: Peptide stimulation of adenylate cyclase activity in crude kidney cortical membranes; format: biochemical; conditions: 10 min at 37° C.
Procedure: Crude rats brain membranes were prepared as described by Nakamuta et al., supra, using 250-300 gm male Sprague-Dawley rats (Charles River Breeding Laboratories). Membranes were either used immediately or stored at -80° C. for no more than three days. Crude rat kidney membranes used for binding studies and adenylate cyclase assays were prepared as described by Schwartz, K. E., R. C. Orlowski and R. Marcus, Endocrinology 108:831 (1981) with a minor modification. The dissected kidney cortices were first homogenized briefly with a Polytron™ (Brinkman Instruments) at low speed ("5") before complete homogenization with a loose-fitting Wheaton Dounce homogenizer (American Scientific Products, MacGaw Park, IL, pestle "B"). Protein concentrations were determined using Coomassie Brilliant Blue G-250 (Sedmak, J. J. and S. E. Grossberg, Anal. Biochem. 83:544 (1977)) and crystallized BSA (Sigma Chemical Co., St. Louis, MO) as the standard. All preparations of kidney membranes were carried out at 4° C. and the membranes were used immediately for binding studies or adenylate cyclase assays.
Peptide stimulation of adenylate cyclase activity in crude kidney cortical membranes was measured using methods described by Marcus, R. and G. D. Aurbach, Biochim. Biophys. Acta 242:410 (1971). […]

[4] = biological target: T2, calcitonin receptors (brain particulate fraction) (Rattus norvegicus, UniProt P32214)
T2 sequence (P32214 25-516): T1 sequence (P32214 25-516)
Description: Fractions from the single symmetrical peak which was eluted with this buffer were combined, adjusted to pH 7.5, and frozen in small aliquots until needed. The specific activity of the radioiodinated peptide was ~160 μCi/μg. […] Each point represents the mean of three triplicate determinations.

[5] = tested on: male Sprague-Dawley rats; experiment: In vivo hypocalcemic rat bioassay (Example 6)
[6] = calculated using the entire π-A curve (Example 7)
[7] = π-A curve between 5 and 12 dyn/cm (Example 4)

SMILES | IC50 for brain receptors, calculated from theoretical curves fitted to the data [1] | Collapse pressure of the monolayer [2] | A∞, limiting molecular area extrapolated to zero surface pressure [2, 6] | κ, compressibility constant of the monolayer [2, 6] | Stimulation of adenylate cyclase over basal activity [3] | pIC50 [4] | Activity relative to PCT ([5]; hypocalcemic response in rats, b98 covers in vitro and in vivo activity) | In vivo potency relative to SCT-I (fold less potent) ([5]; subcutaneous, plasma calcium 1 hour after injection) | A∞, limiting molecular area extrapolated to zero surface pressure [2, 7] | κ, compressibility constant of the monolayer [2, 7]
CC(C)C[C@H](NC(=O)[C@H](CCCCN)NC(=O)[C@H](CCC(N)=O)NC(=O)[C@H](CC(C)C)NC(=O)[C@H](CCC(N)=O)NC(=O)[C@H](CCC(N)=O)NC(=O)[C@H](CC(C)C)NC(=O)[C@H](CC(C)C)NC(=O)[C@@H]1CSSC[C@H](N)C(=O)N[C@@H](CO)C(=O)N[C@@H](CC(N)=O)C(=O)N[C@@H](CC(C)C)C(=O)N[C@@H](CO)C(=O)N[C@@H]([C@@H](C)O)C(=O)N1)C(=O)N[C@@H](CC(C)C)C(=O)N[C@@H](CCC(N)=O)C(=O)N[C@@H](CCCCN)C(=O)N[C@@H](CC(C)C)C(=O)N[C@@H](CCCCN)C(=O)N[C@@H](CCC(N)=O)C(=O)N[C@@H](Cc1ccc(O)cc1)C(=O)N1CCC[C@H]1C(=O)N[C@@H](CCCNC(=N)N)C(=O)N[C@H](C(=O)N[C@@H](CC(N)=O)C(=O)N[C@H](C(=O)NCC(=O)N[C@@H](CO)C(=O)NCC(=O)N[C@H](C(=O)N1CCC[C@H]1C(N)=O)[C@@H](C)O)[C@@H](C)O)[C@@H](C)O [MCT-II] (H-CSNLSTCLLQQLQKLLQKLKQYPRTNTGSGTP-NH2; disulfide 1-7; N-terminus assumed) | 0.0006 µM | 22 dyn/cm | 362±10 Å^2 | 0.01 cm/dyn | stimulated adenylate cyclase over basal activity | – | – | – | – | –
CC(C)C[C@@H]1NC(=O)[C@H](CC(N)=O)NC(=O)CNC(=O)[C@@H](N)CSSC[C@@H](C(=O)N[C@@H](CC(C)C)C(=O)N[C@@H](CC(C)C)C(=O)N[C@@H](CCC(N)=O)C(=O)N[C@@H](CCC(N)=O)C(=O)N[C@@H](Cc2c[nH]c3ccccc23)C(=O)N[C@@H](CCC(N)=O)C(=O)N[C@@H](CCCCN)C(=O)N[C@@H](CC(C)C)C(=O)N[C@@H](CC(C)C)C(=O)N[C@@H](CCC(N)=O)C(=O)N[C@@H](CCCCN)C(=O)N[C@@H](CC(C)C)C(=O)N[C@@H](CCCCN)C(=O)N[C@@H](CCC(N)=O)C(=O)N[C@@H](CC(C)C)C(=O)N2CCC[C@H]2C(=O)N[C@@H](CCCNC(=N)N)C(=O)N[C@H](C(=O)N[C@@H](CC(N)=O)C(=O)N[C@H](C(=O)NCC(=O)N[C@@H](CO)C(=O)NCC(=O)N[C@H](C(=O)N2CCC[C@H]2C(N)=O)[C@@H](C)O)[C@@H](C)O)[C@@H](C)O)NC(=O)[C@H]([C@@H](C)O)NC(=O)[C@H](CO)NC1=O [MCT-I] (H-CGNLSTCLLQQWQKLLQKLKQLPRTNTGSGTP-NH2; disulfide 1-7) | – | 24 dyn/cm | 434±7 Å^2 | 0.02 cm/dyn | – | 7.77 | approximately as active as PCT; also recorded: equivalent to that of PCT | about 10 fold | 362 Å^2 | 0.016 cm/dyn

Reference: patent US4663309A, “Novel peptide hormones with calcitonin-like activity” (University Patents, Inc., priority 1985, dated 1987)
